For assay [1], the system named is Human Peripheral Blood Mononuclear Cells (PBMC), mature IL-1β. The experiment in a line: PBMC cell assay: IL-1β assay with human peripheral blood mononuclear cells. Type of assay: cell-based. As to conditions: LPS-stimulated human PBMC, mature IL-1β in supernatant by ELISA. In a few lines:
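Donor PBMC (suspension at 6×10^6 cells/ml) or adherent-enriched monocytes were stimulated with 5 ng/ml LPS (final) alongside 5–6 compound dilutions bracketing the ICE Ki, at 0.1% DMSO final, for 16–18 hr at 37° C, 5% CO2. Mature IL-1β in supernatants was measured by ELISA; IC50 was calculated relative to LPS-only controls.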

Assay [2] addresses T1, Caspase-1 (Homo sapiens, UniProt P29466).
T1 sequence (P29466 120-297 limits assumed): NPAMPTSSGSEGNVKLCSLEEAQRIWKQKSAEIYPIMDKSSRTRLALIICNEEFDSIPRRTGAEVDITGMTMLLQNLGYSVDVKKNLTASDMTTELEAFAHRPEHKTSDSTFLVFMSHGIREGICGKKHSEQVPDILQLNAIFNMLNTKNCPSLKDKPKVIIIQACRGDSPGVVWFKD
T1 sequence (P29466 317-404 limits assumed): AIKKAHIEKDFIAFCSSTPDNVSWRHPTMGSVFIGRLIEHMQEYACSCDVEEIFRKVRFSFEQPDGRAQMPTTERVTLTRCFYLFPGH
The experiment in a line: Caspase-1 enzyme inhibition (Ki). In kind it is biochemical. In a few lines:
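Ki obtained by fitting rate versus inhibitor concentration to the Morrison tight-binding equation for competitive inhibitors, with pNA release read at 405 nm at 37 °C. Substrate Suc-YVAD-pNA (80 μM final) added after 15 min enzyme–inhibitor preincubation in Tris pH 7.5 buffer with DTT and CHAPS.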

For assay [3], the system named is Human whole blood, IL-1β production. The assay can be described thus: Whole blood assay for IL-1β production. As to conditions: LPS-stimulated whole blood, IL-1β by ELISA. In kind it is cell-based. In a few lines: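 LPS-stimulated (5.0 ng/ml final) human whole blood incubated with test compound in saline (or plasma/PBS-5% DMSO for hydrophobic compounds) at 30° C for 16-18 hr. Plasma IL-1β then measured by ELISA at 1:200 dilution, against no-LPS, no-inhibitor and vehicle controls.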

[4] abbreviates: substrate Suc-YVAD-pNA 80 μM, 37° C., pH 7.5.

Like-named read-outs stand apart in the source and are kept apart here. Where a SMILES comes first, the peptide text is derived from it. The star is where a group is joined. Bz = O=C(c1ccccc1)*

On to `C[C@H](NC(=O)c1ccc(N(C)C)cc1)C(=O)N1CCC[C@H]1C(=O)N[C@H](C=O)CC(=O)O` [Example 7s], for which the IC50 in assay [1] is 0.5 to 1 µM; in assay [3], 2.5 to 7.5 µM. The compound further registered a Ki in assay [2] (setting [4]) of 0.01 to 1 µM.
The matching figures for `COc1ccc(C(=O)N[C@H](C(=O)N2C[C@H](NC(C)=O)C[C@H]2C(=O)N[C@H](C=O)CC(=O)O)C(C)C)cc1` [Example 9a]: 0.5 to 1 µM, 2.5 to 7.5 µM and 0.01 to 1 µM.
As to `COc1cc(C(=O)N[C@H](C(=O)N2CCC[C@H]2C(=O)N[C@H](C=O)CC(=O)O)C(C)C)cc(OC)c1O` [Example 5n], the half-maximal inhibitory concentration (IC50) in assay [1] fell in the range of 0.5 to 1 µM; in assay [3], 2.5 to 7.5 µM. Besides, the Ki in assay [2] and in assay [2] (setting [4]) was below 0.01 µM throughout.
For the compound `CC(C)[C@H](NC(=O)c1ccccc1C(=O)c1ccccc1)C(=O)N1CCC[C@H]1C(=O)N[C@H](C=O)CC(=O)O` [Example 5u], the half-inhibitory concentration (IC50) was 1 to 2 µM in assay [1] and below 2.5 µM in assay [3]. The Ki in assay [2] and in assay [2] (setting [4]) was 0.01 to 1 µM throughout.
For the compound `C[C@H](NC(=O)c1ccc2c(c1)OCO2)C(=O)N1CCC[C@H]1C(=O)N[C@H](C=O)CC(=O)O` [Example 7q], the results for the IC50 in assay [1] and in assay [3] were above 2 µM and below 2.5 µM, respectively. This compound also registered a Ki in assay [2] (setting [4]) of 0.01 to 1 µM.
The matching figures for `COc1cc(C(=O)N[C@@H](C)C(=O)N2CCC[C@H]2C(=O)N[C@H](C=O)CC(=O)O)ccc1N` [Example 7l]: 0.5 to 1 µM, below 2.5 µM and 0.01 to 1 µM.
In the case of `CC(C)[C@H](NC(=O)c1cc2ccccc2[nH]1)C(=O)N1CCC[C@H]1C(=O)N[C@H](C=O)CC(=O)O` [Example 5b], the 50% inhibitory concentration (IC50) is 0.5 to 1 µM in assay [1] and below 2.5 µM in assay [3]. The same compound gave an inhibitory constant (Ki) in assay [2] (setting [4]) below 0.01 µM.
As for `CC(C)[C@H](NC(=O)c1cccc(C(=O)c2ccccc2)c1)C(=O)N1CCC[C@H]1C(=O)N[C@H](C=O)CC(=O)O` [Example 5az], the concentration for half-maximal inhibition (IC50) in assay [1] is 0.5 to 1 µM; in assay [3] it was below 2.5 µM. Further, in assay [2] (setting [4]), the inhibition constant (Ki) was below 0.01 µM.
As for `COc1ccc(C(=O)N[C@H](C(=O)N2C[C@H](NC(=O)NC(C)C)C[C@H]2C(=O)N[C@H](C=O)CC(=O)O)C(C)C)cc1` [Example 9b], the IC50 was in the range of 0.5 to 1 µM in assay [1] and 2.5 to 7.5 µM in assay [3]. Also, in assay [2] (setting [4]), the inhibition constant Ki was below 0.01 µM.
The matching figures for `CS(=O)(=O)CC(NC(=O)c1cc(Cl)c(O)c(Cl)c1)C(=O)N1CCCC1C(=O)NC(C=O)CC(=O)O` (stereo not shown) [Example 20s, 3-({1-[2-(3,5-dichloro-4-hydroxy-benzoylamino)-3-methanesulfonyl-propionyl]-pyrrolidine-2-carbonyl}-amino)-4-oxo-butyric acid]: 1 to 2 µM, below 2.5 µM and below 0.01 µM.
On to `CC(C)[C@H](NC(=O)c1cnc2ccccc2n1)C(=O)N1CCC[C@H]1C(=O)N[C@H](C=O)CC(=O)O` [Example 5w], for which the figures for the IC50 in assay [1] and in assay [3] were 0.5 to 1 µM and below 2.5 µM, respectively. In addition, the Ki in assay [2] and in assay [2] (setting [4]) was 0.01 to 1 µM each time.
Consider `C[C@H](NC(=O)c1nccc2ccccc12)C(=O)N1CCCC[C@H]1C(=O)N[C@H](C=O)CC(=O)O` [Example 25a], for which the half-inhibitory concentration (IC50) in assay [1] is below 0.5 µM; in assay [3], 2.5 to 7.5 µM. Further, the inhibition constant (Ki) in assay [2] (setting [4]) is below 0.01 µM.
Consider `CC(C)[C@H](NC(=O)c1cccc2c1Cc1ccccc1-2)C(=O)N1CCC[C@H]1C(=O)N[C@H](C=O)CC(=O)O` [Example 5j], for which the half-maximal inhibitory concentration (IC50) is above 2 µM in assay [1] and above 7.5 µM in assay [3]. Besides, the Ki in assay [2] and in assay [2] (setting [4]) was below 0.01 µM each time.
For the compound `C[C@H](NC(=O)c1ccc(N)c(OC(F)(F)F)c1)C(=O)N1CCC[C@H]1C(=O)N[C@H](C=O)CC(=O)O` [Example 7y], the IC50 was above 2 µM in assay [1] and above 7.5 µM in assay [3]. This compound also gave a Ki in assay [2] (setting [4]) of 0.01 to 1 µM.
For the compound `C[C@H](NC(=O)c1ccc(Cl)c(N)c1)C(=O)N1CCC[C@H]1C(=O)N[C@H](C=O)CC(=O)O` [Example 7h], the figures for the 50% inhibitory concentration (IC50) in assay [1] and in assay [3] were 0.5 to 1 µM and below 2.5 µM, respectively. The compound further had a Ki in assay [2] (setting [4]) of 0.01 to 1 µM.
As to `CC(C)[C@H](NC(=O)c1nccc2ccccc12)C(=O)N1C[C@H](NS(C)(=O)=O)C[C@H]1C(=O)N[C@H](C=O)CC(=O)O` [Example 9d], the IC50 in assay [1] is 0.5 to 1 µM; in assay [3], below 2.5 µM. The inhibitory constant (Ki) in assay [2] (setting [4]) was below 0.01 µM.
The matching figures for `C[C@H](NC(=O)[C@@H](NC(=O)c1cc2ccccc2[nH]1)C(C)(C)C)C(=O)N[C@H](C=O)CC(=O)O` [Example 29j]: 0.5 to 1 µM, below 2.5 µM and below 0.01 µM.
For `CC(C)[C@H](NC(=O)c1ccc2c(c1)OCO2)C(=O)N1CCC[C@H]1C(=O)N[C@H](C=O)CC(=O)O` [Example 5r], the concentration for half-maximal inhibition (IC50) was above 2 µM in assay [1] and above 7.5 µM in assay [3]. For the same compound, the inhibition constant (Ki) in assay [2] and in assay [2] (setting [4]) was 0.01 to 1 µM in each case.
On to `COc1cc(CC(=O)N[C@H](C(=O)N2CCC[C@H]2C(=O)N[C@H](C=O)CC(=O)O)C(C)C)ccc1OCc1ccccc1` [Example 5ak], for which the values for the IC50 in assay [1] and in assay [3] were 0.5 to 1 µM and above 7.5 µM, respectively. Also, the Ki in assay [2] and in assay [2] (setting [4]) was 0.01 to 1 µM in each case.
As for `C[C@H](NC(=O)c1cccc(N(C)C)c1)C(=O)N1CCC[C@H]1C(=O)N[C@H](C=O)CC(=O)O` [Example 7n], the half-inhibitory concentration (IC50) in assay [1] was 0.5 to 1 µM; in assay [3] it was below 2.5 µM. Also, the Ki in assay [2] (setting [4]) lay in the range of 0.01 to 1 µM.
Take `C[C@H](NC(=O)c1cccc2ccccc12)C(=O)N1CCC[C@H]1C(=O)N[C@H](C=O)CC(=O)O` [Example 7a]: the concentration for half-maximal inhibition (IC50) is above 2 µM in assay [1] and 2.5 to 7.5 µM in assay [3]. For the same compound, the inhibition constant (Ki) in assay [2] (setting [4]) was below 0.01 µM.
On to `CC(C)[C@H](NC(=O)c1ccccc1)C(=O)N1CCC[C@H]1C(=O)N[C@H](C=O)CC(=O)O` [Example 5e] (Bz-Val-Pro-Asp-aldehyde), for which the half-maximal inhibitory concentration (IC50) was 0.5 to 1 µM in assay [1] and below 2.5 µM in assay [3]. The inhibition constant Ki in assay [2] (setting [4]) lay in the range of 0.01 to 1 µM.
With `CC(C)(C)[C@H](NC(=O)c1nccc2ccccc12)C(=O)N1CCCC[C@H]1C(=O)N[C@H](C=O)CC(=O)O` [Example 25c], the figures for the concentration for half-maximal inhibition (IC50) in assay [1] and in assay [3] were 0.5 to 1 µM and 2.5 to 7.5 µM, respectively. In assay [2] (setting [4]), this compound showed an inhibition constant Ki below 0.01 µM.
Regarding `CC(C)[C@H](NC(=O)c1ccc(O)cc1)C(=O)N1CCC[C@H]1C(=O)N[C@H](C=O)CC(=O)O` [Example 5f], the figures for the IC50 in assay [1] and in assay [3] were 1 to 2 µM and 2.5 to 7.5 µM, respectively. In assay [2] (setting [4]), this compound registered a Ki of 0.01 to 1 µM.
For `CC(C)(C)[C@H](NC(=O)c1ccc(N)c(Cl)c1)C(=O)N1CCCC1C(=O)N[C@H](C=O)CC(=O)O` (stereo partly shown) [Example 73, 3-({-[2-(4-Amino-3-chloro-benzoylamino)-3,3-dimethyl-butyryl]-pyrrolidine-2-carbonyl}-amino)-4-oxo-butyric acid], the IC50 is 0.5 to 1 µM in assay [1] and below 2.5 µM in assay [3]. The compound further showed an inhibition constant Ki in assay [2] (setting [4]) below 0.01 µM.
Consider `CC(C(=O)N[C@H](C(=O)N1CCC[C@H]1C(=O)N[C@H](C=O)CC(=O)O)C(C)C)c1ccc(C(=O)c2cccs2)cc1` (stereo partly shown) [Example 5aj], for which the figures for the half-maximal inhibitory concentration (IC50) in assay [1] and in assay [3] were 0.5 to 1 µM and above 7.5 µM, respectively. The inhibition constant Ki in assay [2] and in assay [2] (setting [4]) was 0.01 to 1 µM each time.
For the compound `CC(C)[C@H](NC(=O)c1ccc(O)cc1)C(=O)N[C@@H](C)C(=O)N[C@H](C=O)CC(=O)O` [Example 29l], the values for the IC50 in assay [1] and in assay [3] were 0.5 to 1 µM and below 2.5 µM, respectively. The compound further showed a Ki in assay [2] (setting [4]) of 0.01 to 1 µM.

The term IC50 denotes the concentration at which inhibition is half-maximal. In general, Ki refers to a measure of affinity in units of concentration, obtained from inhibition or displacement. A higher Ki goes with weaker binding.
